Results: patent US10208047B2, “Tertiary alcohol imidazopyrazine BTK inhibitors” (Merck Sharp & Dohme Corp., priority 2014, dated 2019)

Molecular target: BTK enzyme (recombinant full-length BTK, hBTK) (Homo sapiens (Human), UniProt Q06187)
Test: Btk enzyme activity assay, LANCE TR-FRET
Format: biochemical
Conditions: 50 pM hBTK, 2 μM biotin-A5-peptide, 25 μM ATP, 60 minute compound & enzyme incubation, compound range 1 μM to 0.017 nM, read-out: BTK binding IC50
Protocol: Btk Enzyme Activity Assay Methods
BTK enzymatic activity was determined with the LANCE (Lanthanide Chelate Excite) TR-FRET (Time-resolved fluorescence resonance energy transfer) assay. In this assay, the potency (IC50) of each compound was determined from an eleven point (1:3 serial dilution; final compound concentration range in assay from 1 μM to 0.017 nM) titration curve using the following outlined procedure. To each well of a black non-binding surface Corning 384-well microplate (Corning Catalog #3820), 5 nL of compound (2000 fold dilution in final assay volume of 10 μL) was dispensed, followed by the addition of 7.5 μL of 1× kinase buffer (50 mM Hepes 7.5, 10 mM MgCl2, 0.01% Brij-35, 1 mM EGTA, 0.05% BSA & 1 mM DTT) containing 5.09 pg/μL (66.67 pM) of BTK enzyme (recombinant protein from baculovirus-transfected Sf9 cells: full-length BTK, 6HIS-tag cleaved). Following a 60 minute compound & enzyme incubation, each reaction was initiated by the addition of 2.5 μL 1× kinase buffer containing 8 μM biotinylated “A5” peptide (Biotin-EQEDEPEGDYFEWLE-NH2) (SEQ.ID.NO.: 1), and 100 μM ATP. The final reaction in each well of 10 μL consists of 50 pM hBTK, 2 μM biotin-A5-peptide, and 25 μM ATP. Phosphorylation reactions were allowed to proceed for 120 minutes. Reactions were immediately quenched by the addition of 20 uL of 1× quench buffer (15 mM EDTA, 25 mM Hepes 7.3, and 0.1% Triton X-100) containing detection reagents (0.626 nM of LANCE-Eu-W1024-anti-phosphoTyrosine antibody, PerkinElmer and 86.8 nM of Streptavidin-conjugated Dylight 650, Dyomics/ThermoFisher Scientific). After 60 minutes incubation with detection reagents, reaction plates were read on a PerkinElmer EnVision plate reader using standard TR-FRET protocol. Briefly, excitation of donor molecules (Eu-chelate:anti-phospho-antibody) with a laser light source at 337 nm produces energy that can be transferred to Dylight-650 acceptor molecules if this donor:acceptor pair is within close proximity. Fluorescence intensity at both 665 nm (acceptor) and 615 nm (donor) are measured and a TR-FRET ratio calculated for each well (acceptor intensity/donor intensity). IC50 values were determined by 4 parameter robust fit of TR-FRET ratio values vs. (Log10) compound concentrations.

Chain of BTK enzyme (recombinant full-length BTK, hBTK) (Q06187 whole entry): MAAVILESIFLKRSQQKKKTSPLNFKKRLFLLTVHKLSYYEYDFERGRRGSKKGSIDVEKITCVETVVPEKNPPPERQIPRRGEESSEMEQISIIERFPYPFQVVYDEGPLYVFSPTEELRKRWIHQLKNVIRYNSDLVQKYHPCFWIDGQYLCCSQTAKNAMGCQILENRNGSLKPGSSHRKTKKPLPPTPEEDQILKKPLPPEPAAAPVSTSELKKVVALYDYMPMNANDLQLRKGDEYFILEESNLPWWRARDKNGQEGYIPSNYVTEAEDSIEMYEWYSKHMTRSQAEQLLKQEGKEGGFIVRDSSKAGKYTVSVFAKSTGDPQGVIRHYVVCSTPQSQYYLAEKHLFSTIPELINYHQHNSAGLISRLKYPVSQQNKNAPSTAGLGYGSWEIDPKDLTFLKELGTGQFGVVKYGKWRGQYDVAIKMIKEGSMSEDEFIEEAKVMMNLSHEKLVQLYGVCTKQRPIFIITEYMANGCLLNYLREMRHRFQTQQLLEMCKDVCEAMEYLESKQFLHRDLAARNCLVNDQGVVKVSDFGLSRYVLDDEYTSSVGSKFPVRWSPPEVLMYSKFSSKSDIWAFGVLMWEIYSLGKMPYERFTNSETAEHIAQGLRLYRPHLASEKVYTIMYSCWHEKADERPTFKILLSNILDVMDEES

IC50 | Structure (SMILES)
0.0062 µM | C[C@@](O)(c1ccc(-c2nc(C34CCC(C(=O)O)(CC3)C3CC34)n3ccnc(N)c23)cc1)c1cccc(C(F)(F)F)c1 (stereo partly drawn) [Example 22, 5-[8-amino-1-(4-{(1R)-1-hydroxy-1-[3-(trifluoromethyl)phenyl]ethyl}phenyl)imidazo[1,5-a]pyrazin-3-yl]tricyclo[3.2.2.0~2,4~]nonane-1-carboxylic acid]
0.0287 µM | CC(C)[C@@H]1CC[C@H](c2nc(-c3ccc([C@@](C)(O)c4cccc(C(F)(F)F)c4)cc3)c3c(N)nccn23)C[C@@H]1C(=O)O [Example 23, (1S,2S,5S)-5-[8-amino-1-(4-{(1R)-1-hydroxy-1-[3-(trifluoromethyl)phenyl]ethyl}phenyl)imidazo[1,5-a]pyrazin-3-yl]-2-(1-methylethyl)cyclohexanecarboxylic acid]
0.0063 µM | CC1(C)[C@H](c2nc(-c3ccc([C@@](C)(O)c4cccc(C(F)(F)F)c4)cc3)c3c(N)ncc(F)n23)CC[C@]1(C)C(=O)O [Example 24, (1S,3R)-3-[8-amino-5-fluoro-1-(4-{(1R)-1-hydroxy-1-[3-(trifluoromethyl)phenyl]ethyl}phenyl)imidazo[1,5-a]pyrazin-3-yl]-1,2,2-trimethylcyclopentanecarboxylic acid]
0.0399 µM | C[C@@](O)(c1ccc(-c2nc([C@H]3C[C@H]4CC[C@@H](C3)[C@H]4C(=O)O)n3ccnc(N)c23)cc1)c1cccc(C(F)(F)F)c1 [Example 25, (3-endo,8-syn)-3-[8-amino-1-(4-{(1R)-1-hydroxy-1-[3-(trifluoromethyl)phenyl]ethyl}phenyl)imidazo[1,5-a]pyrazin-3-yl]bicyclo[3.2.1]octane-8-carboxylic acid]
0.0335 µM | C[C@@](O)(c1ccc(-c2nc([C@@H]3C[C@H]4CC[C@@H](C3)[C@H]4C(=O)O)n3ccnc(N)c23)cc1)c1cccc(C(F)(F)F)c1 [Example 26, (3-exo,8-syn)-3-[8-amino-1-(4-{(1R)-1-hydroxy-1-[3-(trifluoromethyl)phenyl]ethyl}phenyl)imidazo[1,5-a]pyrazin-3-yl]bicyclo[3.2.1]octane-8-carboxylic acid]
0.00078 µM | CC1(C)[C@H](c2nc(-c3ccc([C@@](C)(O)c4cccc(C(F)F)c4)cc3)c3c(N)nccn23)CC[C@]1(C)C(=O)O [Example 27, (1S,3R)-3-[8-amino-1-(4-{(1R)-1-[3-(difluoromethyl)phenyl]-1-hydroxyethyl}phenyl)imidazo[1,5-a]pyrazin-3-yl]-1,2,2-trimethylcyclopentanecarboxylic acid]
0.0012 µM | CCOc1cc([C@@](C)(O)c2cccc(C(F)(F)F)c2)ccc1-c1nc([C@@H]2CC[C@](C)(C(=O)O)C2(C)C)n2ccnc(N)c12 [Example 28, (1S,3R)-3-[8-amino-1-(2-ethoxy-4-{(1S)-1-hydroxy-1-[3-(trifluoromethyl)phenyl]ethyl}phenyl)imidazo[1,5-a]pyrazin-3-yl]-1,2,2-trimethylcyclopentanecarboxylic acid]
0.0028 µM | CC(C)[C@]1(C(=O)O)CC[C@@H](c2nc(-c3ccc([C@@](C)(O)c4cccc(C(F)F)c4)cc3)c3c(N)ncc(Cl)n23)C1 [Example 29, (1S,3R)-3-[8-amino-5-chloro-1-(4-{(1R)-1-[3-(difluoromethyl)phenyl]-1-hydroxyethyl}phenyl)imidazo[1,5-a]pyrazin-3-yl]-1-(1-methylethyl)cyclopentanecarboxylic acid]
0.0323 µM | CC(C)[C@@]1(C(=O)O)CC[C@H](c2nc(-c3ccc([C@@](C)(O)c4cccc(C(F)F)c4)cc3)c3c(N)ncc(Cl)n23)C1 [Example 30, (1R,3S)-3-[8-amino-5-chloro-1-(4-{(1R)-1-[3-(difluoromethyl)phenyl]-1-hydroxyethyl}phenyl)imidazo[1,5-a]pyrazin-3-yl]-1-(1-methylethyl)cyclopentanecarboxylic acid]
0.133 µM | CC(C)[C@]1(C(=O)O)CC[C@H](c2nc(-c3ccc([C@@](C)(O)c4cccc(C(F)F)c4)cc3)c3c(N)ncc(Cl)n23)C1 [Example 31, (1S,3S)-3-[8-amino-5-chloro-1-(4-{(1R)-1-[3-(difluoromethyl)phenyl]-1-hydroxyethyl}phenyl)imidazo[1,5-a]pyrazin-3-yl]-1-(1-methylethyl)cyclopentanecarboxylic acid]
0.0418 µM | CC(C)[C@@]1(C(=O)O)CC[C@@H](c2nc(-c3ccc([C@@](C)(O)c4cccc(C(F)F)c4)cc3)c3c(N)ncc(Cl)n23)C1 [Example 32, (1R,3R)-3-[8-amino-5-chloro-1-(4-{(1R)-1-[3-(difluoromethyl)phenyl]-1-hydroxyethyl}phenyl)imidazo[1,5-a]pyrazin-3-yl]-1-(1-methylethyl)cyclopentanecarboxylic acid]
0.0114 µM | CC1(C(=O)O)CCC(C)(c2nc(-c3ccc([C@@](C)(O)c4cccc(C(F)F)c4)cc3)c3c(N)nccn23)CC1 (stereo partly drawn) [Example 33, 4-[8-amino-1-(4-{(1R)-1-[3-(difluoromethyl)phenyl]-1-hydroxyethyl}phenyl)imidazo[1,5-a]pyrazin-3-yl]-1,4-dimethylcyclohexanecarboxylic acid]
0.0024 µM | CC1(C)[C@H](c2nc(-c3ccc([C@@](C)(O)c4cccc(C(F)F)c4)cc3)c3c(N)ncc(F)n23)CC[C@]1(C)C(=O)O [Example 34, (1S,3R)-3-[8-amino-1-(4-{(1R)-1-[3-(difluoromethyl)phenyl]-1-hydroxyethyl}phenyl)-5-fluoroimidazo[1,5-a]pyrazin-3-yl]-1,2,2-trimethylcyclopentanecarboxylic acid]
0.0157 µM | C[C@@](O)(c1ccc(-c2nc([C@@H]3C[C@@H]4[C@H](C3)[C@@H]4C(=O)O)n3ccnc(N)c23)cc1)c1cccc(C(F)(F)F)c1 [Example 35, (1R,3r,5S,6s)-3-[8-amino-1-(4-{(1R)-1-hydroxy-1-[3-(trifluoromethyl)phenyl]ethyl}phenyl)imidazo[1,5-a]pyrazin-3-yl]bicyclo[3.1.0]hexane-6-carboxylic acid]
0.0011 µM | C[C@@](O)(c1ccc(-c2nc([C@@H]3C[C@@H]4[C@H](C3)[C@H]4C(=O)O)n3ccnc(N)c23)cc1)c1cccc(C(F)(F)F)c1 [Example 36, (1R,3R,5S,6r)-3-[8-amino-1-(4-{(1R)-1-hydroxy-1-[3-(trifluoromethyl)phenyl]ethyl}phenyl)imidazo[1,5-a]pyrazin-3-yl]bicyclo[3.1.0]hexane-6-carboxylic acid]
